Reference: patent US20170304317A1, “DIETARY S[…] MUSCLE GROWTH AND STRENGTH” (priority 2015, published 2017)

What was measured:
[1] = via conversion to 4-androstenediol; stated as well known; cited from earlier work
[2] = regular (non-esterified) 19 Nor-DHEA; cited from earlier work
[3] = cited from earlier work
[4] = Bioavailability / half-life of 19 Nor-DHEA forms; assay type: in vivo; details: compared with regular 19 Nor-DHEA

C[C@]12CC[C@H](O)C=C1CC[C@@H]1[C@@H]2CC[C@]2(C)C(=O)CC[C@@H]12 [4-DHEA]
anabolic potency compared with regular DHEA [1]: more than two times greater

C[C@]12CC[C@H]3[C@@H](CC=C4C[C@@H](O)CC[C@@H]43)[C@@H]1CCC2=O [19 Nor-DHEA]
half-life [2]: very short half-life

C[C@]12C=CC(O)CC1CC[C@@H]1[C@@H]2CC[C@]2(C)C(=O)CC[C@@H]12 (some centres unmarked) [1-DHEA]
conversion rate to 1-testosterone ([3]; stated as generally known): less than 2%

CCCCCCC(=O)O[C@@H]1C=C2CC[C@@H]3[C@H](CC[C@]4(C)C(=O)CC[C@@H]34)[C@H]2CC1 [enanthated 19 Nor-DHEA, 3b-enanthoxy-19-nor-androst-4-ene-17-one]
bioavailability [4]: improved bioavailability

C[C@]12CC[C@H](O)CC1=CC[C@@H]1[C@@H]2CC[C@]2(C)C(=O)CC[C@@H]12 [DHEA, dehydroepiandrosterone]
conversion rate to testosterone ([3]; stated as well known): ~1%
